Measured values as given in patent US20210023034A1, “PHENYLALANINE DERIVATIVES FOR USE IN THE TREATMENT OF CANCERS” (UNIVERSITE PARIS EST CRETEIL VAL DE MARNE, priority 2018, published 2021).

Legend:
Recombinant human IL4I1 = target: T1, Recombinant human IL4I1 (Homo sapiens, UniProt Q96RQ9); test: Evaluation of Ki, fluorometric IL4I1 assay; type: biochemical; conditions: for Ki: average of three experiments; for IL4I1 Inhibitor: recombinant human IL4I1, 30 min pre-incubation
T1 construct: purchased R&D Systems, Inc
T1 sequence (Q96RQ9 22-567): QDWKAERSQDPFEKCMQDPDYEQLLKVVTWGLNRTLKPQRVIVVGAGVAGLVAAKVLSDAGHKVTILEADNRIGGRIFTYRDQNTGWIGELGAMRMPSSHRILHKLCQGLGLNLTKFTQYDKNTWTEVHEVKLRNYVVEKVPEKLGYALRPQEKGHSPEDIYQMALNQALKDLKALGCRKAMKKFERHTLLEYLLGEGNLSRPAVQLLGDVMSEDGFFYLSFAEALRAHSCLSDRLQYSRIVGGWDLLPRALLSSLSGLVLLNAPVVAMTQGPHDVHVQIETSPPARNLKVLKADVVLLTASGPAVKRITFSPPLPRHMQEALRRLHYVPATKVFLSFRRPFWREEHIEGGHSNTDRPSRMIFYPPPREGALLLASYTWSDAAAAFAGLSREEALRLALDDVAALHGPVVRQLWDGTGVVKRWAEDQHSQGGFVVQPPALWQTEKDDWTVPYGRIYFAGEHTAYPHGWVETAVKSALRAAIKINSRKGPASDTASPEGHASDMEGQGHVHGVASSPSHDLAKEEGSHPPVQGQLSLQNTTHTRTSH
Description: Evaluation of Ki. Recombinant human IL4I1 (from R&D Systems, Inc) was diluted in PBS at 100 µg/mL and pre-incubated for 30 min with decreasing amounts of each inhibitor dissolved in DMSO (50, 25, and 2.5 μM) or DMSO as a control. The activity was tested in the presence of various amounts of substrate ([…] phenylalanine) using the fluorometric IL4I1 assay described by Carbonnelle-Puscian et al. (Leukemia, 2009, volume 23, pages 952-960 (2009). Ki were calculated using Graph Pad Prism.
Recombinant human IL4I1 was diluted in PBS at 100 µg/mL and pre-incubated for 30 min with decreasing amounts of each inhibitor dissolved in DMSO (50, 25, or 2.5 μM) or DMSO alone, as a control, and IL4I1 measured. […] Compound 13 inhibits IL4l1 activity with an almost 10-fold higher Ki.

Jurkat cells [1] = test: Jurkat cell counts (Trypan blue); type: cell-based; conditions: for Jurkat cell proliferation measured by cell counting: Trypan blue counts at days 1, 2, 3 and 6
Description: (§1) Cell counts. Jurkat cells were seeded at 0.1×10^6/mL in a 24-well plate and an aliquot mixed with Trypan blue and counted at days 1, 2, 3, and 6 using disposable Fast-read 10 chambers. Evaluation of metabolic proliferation. Jurkat cells were seeded at 0.1×10^6/mL in a 96-well plate and incubated at 37° C. in 5% CO2 for various times. At each time point, cells were centrifuged, the medium removed, and CellTiter 96® Non-Radioactive Cell Proliferation Assay reagent (Promega) added and the cells incubated an additional 4 h before measuring the optical density at 570 nm in a plate reader (BMG Labtech Fluostar Optima).
(§2) (A) Jurkat cells were seeded at 0.1×10^6/mL in a 24-well plate and an aliquot mixed with Trypan blue and counted at days 1, 2, 3, and 6. Data are the average±SD of three independent experiments. (B) Jurkat cells were seeded at 0.1×10^6/mL in a 96-well plate and incubated at 37° C. in 5% CO2 for the times indicated in FIG. 2. At each time point, cells were centrifuged, the medium removed, and the CellTiter 96® Non-Radioactive Cell Proliferation Assay (Promega) performed. Data are reported as the percentage of proliferation relative to that of the control samples (treated with DMSO) and are the average±SD of three independent experiments. *** p<0,001, **** p<0,0001 Two-way ANOVA test.

Jurkat cells [2] = test: Evaluation of apoptosis, activated caspase-3 staining, Jurkat cells; type: cell-based; conditions: 100 μM, 24 h
Description: (§3) Evaluation of Apoptosis. Cells were seeded at 0.5×10^6/mL in 24-well plates, with or without the compounds at 100 μM or 10 μM etoposide (VP16) as a positive control, and incubated at 37° C. for 24 h. Cells were then fixed and permeabilized using cytox/cytoperm solution (BD Bioscience) followed by the addition of anti-activated caspase 3-AlexaFluor 647 (Rabbit anti-active Caspase 3 clone C92-605, BD Pharmingen). Caspase-3 positive cells were evaluated using a Cyan ADP LX7 (Beckman Coulter) and analyzed using Flowjo.
(§4) (A) Activated caspase-3 staining of Jurkat cells and (B) PBMC. Cells at 0.5×10^6/mL were seeded in 24-well plates with or without the compounds at 100 μM or 10 μM etoposide (VP16), as a positive control, and incubated at 37° C. for 24 h. Twenty-four hours after treatment, apoptotic Caspase-3 positive cells were evaluated by FACS. Data are expressed as the percentage of Caspase-3 positive cells±SD from three independent experiments.

Jurkat cells [3] = test: Metabolic proliferation (CellTiter 96 Non-Radioactive Cell Proliferation Assay); type: cell-based; conditions: CellTiter 96, relative to DMSO control
Description: as §1, §2

PBMC = test: Evaluation of apoptosis, activated caspase-3 staining, PBMC; type: cell-based, human; conditions: 100 μM, 24 h
Description: as §3, §4

Jurkat cells [4] = test: Cell proliferation of CPD eFluor670-labeled Jurkat cells (FACS); type: cell-based; conditions: data not shown
Description: (§5) Evaluation of cell proliferation. Jurkat cells and PBMCs were labeled with 2 μM Cell Proliferation Dye (CPD) eFluor670 for 10 min at 37° C. DMSO or the compounds were added to labeled PBMCs or Jurkat cells before putting them in culture at 0.2×10^6/well. Jurkat cells were cultured under standard conditions, whereas PBMCs were cultured in 96 U-shaped wells pre-coated with a 0.5 μg/mL solution of anti-CD3 (clone OKT3) functional quality antibody (eBioscience). Cells were collected at day 0, 3, and 6 for fluorescence analysis using a Cyan ADP LX7 (Beckman Coulter). Data were analyzed using Flowjo.

PBMCs = test: Cell proliferation of CPD eFluor670-labeled, anti-CD3 stimulated PBMCs (FACS); type: cell-based, human; conditions: for division index / proliferation index: PBMCs, relative to cells treated with DMSO; for proliferation of PBMCs: anti-CD3 stimulated, days 3 and 6, relative to DMSO
Description: as §5
Cell proliferation dye fluor670-labeled PBMCs were stimulated to proliferate in 96-well anti-CD3 coated plates and analyzed at days 3 and 6 by FACS gating on the lymphocytes population. (A) A typical FACS analysis at day 3 is shown. (B) The division (left panel) and proliferation indices (right panel) were calculated using FlowJo. Data are representative of three independent experiments.

[5] = compounds disclosed in WO2010/06685

Ki (Recombinant human IL4I1; [5])	Ki (Recombinant human IL4I1)	IL4I1 Inhibitor (Recombinant human IL4I1)	fold higher Ki (Recombinant human IL4I1; Ki compared with the other tested compounds)	SMILES	Jurkat cell proliferation measured by cell counting (Jurkat cells [1])	toxicity to Jurkat cells (Jurkat cells [1]; six days of culture)	apoptosis of Jurkat cells (Caspase-3 positive cells) (Jurkat cells [2])	Jurkat cell proliferation measured by metabolic labeling (Jurkat cells [3])	apoptosis of PBMCs (Caspase-3 positive cells) (PBMC)	proliferation of Jurkat cells (Jurkat cells [4])	division index (PBMCs)	proliferation index (PBMCs)	proliferation of PBMCs (PBMCs)
2800 µM				NC(Cc1ccccn1)C(=O)O (stereo not shown) [2′-aza-phenylalanine, reference compound]									
	26.9 µM	Yes		CCOC(=O)C(Cc1ccccc1)Nc1ccccc1 (stereo not shown) [Cp 15]	no cells remained after six days of culture	toxic							
	25 µM	Yes		CCOC(=O)C(Cc1ccccc1)Nc1ccccc1C(O)C(=O)OCC (stereo not shown) [Cp 16]			does not induce apoptosis						
2100 µM				CC(=O)N[C@@H](Cc1ccccc1)C(=O)O [N-acetyl-phenylalanine, reference compound]									
	102 µM	Yes	~10 fold	CCOC(=O)C(Cc1ccccc1)N(CC)CC (stereo not shown) [Cp 13]	do not affect cell proliferation		do not induce significant apoptosis	do not affect cell proliferation	do not induce significant apoptosis	not substantially modified	do not vary markedly	do not vary markedly	not substantially modified
	21.3 µM	Yes		CCCNC(Cc1ccccc1)C(=O)OCC (stereo not shown) [Cp 2]	do not affect cell proliferation		do not induce significant apoptosis	do not affect cell proliferation	do not induce significant apoptosis	not substantially modified	do not vary markedly	do not vary markedly	not substantially modified
3100 µM				CCOC(=O)[C@@H](N)Cc1ccccc1 [L-phenylalanine ethyl ester, reference compound]									

SMILES	Ki (Recombinant human IL4I1; [5])	Ki (Recombinant human IL4I1)	IL4I1 Inhibitor (Recombinant human IL4I1)	fold higher Ki (Recombinant human IL4I1; Ki compared with the other tested compounds)	Jurkat cell proliferation measured by cell counting (Jurkat cells [1])	toxicity to Jurkat cells (Jurkat cells [1]; six days of culture)	apoptosis of Jurkat cells (Caspase-3 positive cells) (Jurkat cells [2])	Jurkat cell proliferation measured by metabolic labeling (Jurkat cells [3])	apoptosis of PBMCs (Caspase-3 positive cells) (PBMC)	proliferation of Jurkat cells (Jurkat cells [4])	division index (PBMCs)	proliferation index (PBMCs)	proliferation of PBMCs (PBMCs)
CCOC(=O)C(Cc1c(Cl)cccc1Cl)N1CCCCC1 (stereo not shown) [Cp 7]		9.8 µM	Yes		strongly inhibits proliferation		induced	strongly inhibits proliferation	induced				
